The test system of one assay is mu-type opiate receptors. Put plainly: Guinea pig ileum (GPI) test, electrically stimulated contractions, antagonism of morphiceptin. The following applies: morphiceptin alone. As to the method: (§1) The compounds of the present invention were tested for their ability to inhibit electrically stimulated muscle contractions in the guinea pig ileum (GPI) assay and in the mouse vas deferens (MVD) assay.
The tests in the guinea pig ileum were conducted as follows: strips of longitudinal muscle with adhering myenteric plexus were prepared from nonterminal ilea of guinea pigs and attached to a force transducer in a 60 ml isolated organ bath. Contractions were elicited by electrical stimulation with a Grass S44D stimulator.

For assay [1], the target named is T1, delta-type opiate receptors (Mus musculus, UniProt P32300).
T1 construct: from tissue; host or cells: mouse vas deferens
T1 sequence (P32300 whole entry): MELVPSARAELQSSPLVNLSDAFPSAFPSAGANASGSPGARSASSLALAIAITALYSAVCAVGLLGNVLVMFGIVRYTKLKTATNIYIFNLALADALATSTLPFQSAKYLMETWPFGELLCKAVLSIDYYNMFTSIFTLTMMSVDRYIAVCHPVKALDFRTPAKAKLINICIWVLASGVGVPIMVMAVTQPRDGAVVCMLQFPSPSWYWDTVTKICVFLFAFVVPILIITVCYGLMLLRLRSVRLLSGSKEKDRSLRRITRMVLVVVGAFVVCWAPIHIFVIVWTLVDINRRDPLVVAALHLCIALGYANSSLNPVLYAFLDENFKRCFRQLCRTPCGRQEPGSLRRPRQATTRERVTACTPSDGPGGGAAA
Description: Mouse vas deferens (MVD) test, electrically stimulated contractions, antagonism of DPDPE. The procedure:
as §1
The mouse vasa deferentia tests were conducted as follows: vas deferens of male mice were placed in a 60 ml tissue bath and attached to a force transducer. Contractions were induced by electrical stimulation. […] Percent inhibition was calculated.

The record followed here is US4684620A, “Cyclic polypeptides having mu-receptor specificity” (Gibson-Stephens Neuropharmaceuticals, Inc., priority 1984, dated 1987).

Residues, ends and D or L forms follow the SMILES beside them.

Turning to `NC(=O)[C@@H]1CCCN1C(=O)[C@H](Cc1ccccc1)NC(=O)[C@@H]1CCCN1C(=O)[C@@H](N)Cc1ccc(O)cc1` [Morphiceptin] (H-YPFP-NH2), the “Percent inhibition of contractions” value in the assay on mu-type opiate receptors (300 nM) is 28 ± 3%; in the assay with mu-type opiate receptors (1000 nM), 58 ± 3%; with mu-type opiate receptors (3000 nM), 73 ± 4%; in the assay on mu-type opiate receptors (10000 nM), 73 ± 3%.
As for `C[C@@H](O)[C@H](NC(=O)[C@H]1NC(=O)[C@H]([C@@H](C)O)NC(=O)[C@H](CCCCN)NC(=O)[C@@H](Cc2c[nH]c3ccccc23)NC(=O)[C@H](Cc2ccc(O)cc2)NC(=O)[C@@H](NC(=O)[C@H](N)Cc2ccccc2)CSSC1(C)C)C(N)=O` [drawing 41], the “Percent inhibition of contractions” value in assay [1] (DPDPE 1 nM plus 1000 nM analog) turned out to be 13 ± 3%; in assay [1] (DPDPE 3 nM plus 1000 nM analog), 28 ± 4%; in assay [1] (DPDPE 10 nM plus 1000 nM analog), 48 ± 8%; in assay [1] (DPDPE 30 nM plus 1000 nM analog), 73 ± 9%; in assay [1] (DPDPE 100 nM plus 1000 nM analog), 91 ± 5%; in assay [1] (DPDPE 300 nM plus 1000 nM analog) it was 97 ± 1%.
